Experimental data taken from ChEMBL document CHEMBL2074437, “Expression and transport properties of the human ileal and renal sodium-dependent bile acid transporter” (Am J Physiol, 1998).

Experiments:
Format in all cases: functional, cell-based
[1] = target: T1, Ileal sodium/bile acid cotransporter (Homo sapiens, UniProt Q12908); experiment: TP_TRANSPORTER: inhibition of Taurocholate uptake in ASBT-expressing COS cells
T1 sequence (Q12908 whole entry): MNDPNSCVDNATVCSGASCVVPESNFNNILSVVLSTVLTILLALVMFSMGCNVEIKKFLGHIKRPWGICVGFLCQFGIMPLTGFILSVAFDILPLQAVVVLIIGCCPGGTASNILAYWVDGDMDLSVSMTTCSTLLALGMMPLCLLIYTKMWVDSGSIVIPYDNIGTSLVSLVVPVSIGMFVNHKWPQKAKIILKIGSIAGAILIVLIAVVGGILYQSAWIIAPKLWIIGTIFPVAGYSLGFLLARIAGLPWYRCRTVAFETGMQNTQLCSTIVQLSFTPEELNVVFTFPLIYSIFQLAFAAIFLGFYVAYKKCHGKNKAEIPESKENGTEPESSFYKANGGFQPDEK

[2] = substrate: C[C@H](CCC(=O)NCC(=O)O)[C@H]1CC[C@H]2[C@@H]3CC[C@@H]4C[C@H](O)CC[C@]4(C)[C@H]3C[C@H](O)[C@]12C; experiment: (§1) TP_TRANSPORTER: uptake in ASBT-expressing COS cells
[3] = substrate: C[C@H](CCC(=O)NCC(=O)O)[C@H]1CC[C@H]2[C@@H]3[C@@H](O)C[C@@H]4C[C@H](O)CC[C@]4(C)[C@H]3CC[C@]12C; experiment: as §1
[4] = substrate: C[C@H](CCC(=O)NCC(=O)O)[C@H]1CC[C@H]2[C@@H]3[C@H](O)C[C@@H]4C[C@H](O)CC[C@]4(C)[C@H]3CC[C@]12C; experiment: as §1

C[C@H](CCC(=O)O)[C@H]1CC[C@H]2[C@@H]3[C@H](O)C[C@@H]4C[C@H](O)CC[C@]4(C)[C@H]3CC[C@]12C [CHENODIOL] gave a Ki [1] of 3.3 µM.

C[C@H](CCC(=O)O)[C@H]1CC[C@H]2[C@@H]3CC[C@@H]4C[C@H](O)CC[C@]4(C)[C@H]3C[C@H](O)[C@]12C [DEOXYCHOLIC ACID] gave a Ki [1] of 6.3 µM and a Ki ([1]; cos) of 6.3 µM.

O=C1OC(c2ccc(O)c(S(=O)(=O)O)c2)(c2ccc(O)c(S(=O)(=O)O)c2)c2c(Br)c(Br)c(Br)c(Br)c21 [SULFOBROMOPHTHALEIN SODIUM] gave a Ki [1] of 144 µM.

C[C@H](CCC(=O)NCCS(=O)(=O)O)[C@H]1CC[C@H]2[C@@H]3[C@H](O)C[C@@H]4C[C@H](O)CC[C@]4(C)[C@H]3CC[C@]12C [TAUROCHENODEOXYCHOLATE] gave a Ki [1] of 6.1 µM.

Work on C[C@H](CCC(=O)NCCS(=O)(=O)O)[C@H]1CC[C@H]2[C@@H]3CC[C@@H]4C[C@H](O)CC[C@]4(C)[C@H]3C[C@H](O)[C@]12C [TAURODEOXYCHOLIC ACID] yielded a Ki [1] of 17.2 µM.

In the case of C[C@H](CCC(=O)NCCS(=O)(=O)O)[C@H]1CC[C@H]2[C@@H]3[C@@H](O)C[C@@H]4C[C@H](O)CC[C@]4(C)[C@H]3CC[C@]12C [TAURURSODIOL], the Ki [1] is reported as 28 µM.

C[C@H](CCC(=O)O)[C@H]1CC[C@H]2[C@@H]3[C@@H](O)C[C@@H]4C[C@H](O)CC[C@]4(C)[C@H]3CC[C@]12C [URSODIOL] gave a Ki [1] of 75 µM.

B1: Ileal sodium/bile acid cotransporter (Homo sapiens) (protein)
chain: T1 sequence (Q12908 whole entry)
Molecule B1 has a Km [2] of 2 µM, a Km [3] of 4.1 µM and a Km [4] of 5.7 µM.
